In ChEMBL document CHEMBL5050859, “Gpx4 inhibitors, pharmaceutical compositions thereof, and their use for treating gpx4-mediated diseases” (2021):

system: Huh-7; experiment: Antiproliferative activity against human Huh-7 cells after 24 hrs by Cell Titer Glo assay; type: functional, cell-based; conditions: Huh-7, 24 h

| Structure (SMILES) | EC50 [nM] |
| --- | --- |
| CN(C)C/C=C/C(=O)N(c1ccc2c(cnn2C)c1)C1(C(=O)NCc2ccccc2)CCOCC1 | > 10000 |
| C#CC(=O)N(c1cccc(Cl)c1)C1(C(=O)NCC(=O)N2CCCC(C(=O)OC)C2)CCOCC1 (stereo not drawn) | 100 |
| C#CC(=O)N(c1cccc(S(N)(=O)=O)c1)C(C(=O)NC(C)(C)C)c1ccc(N)cc1 (stereo not drawn) | > 10000 |
| C#CC(=O)N(CCc1ccccc1)C1(C(=O)NCc2ccccc2)CCCC(C(=O)O)C1 (stereo not drawn) | > 10000 |
| C#CC(=O)N(Cc1ccc(C(=O)OC)cc1)C(C)C(=O)NCc1ccccc1 (stereo not drawn) | 100 |
| C#CC(=O)N(c1cccc2nsnc12)C1(C(=O)NCc2ccccc2)CCOCC1 | ≤ 100 |
| C#CC(=O)N(c1ccc2c(cnn2C)c1)C1(C(=O)NCc2ccccc2)CCC(=O)CC1 | ≤ 100 |
| Cn1ncc2cc(N(C(=O)C3CO3)C3(C(=O)NCc4ccccc4)CCOCC3)ccc21 (stereo not drawn) | > 10000 |
| C#CC(=O)N(c1ccc(N(C)C)cc1)C1(C(=O)NCc2ccccc2)CCOCC1 | 100 |
| Cn1ncc2cc(N(C(=O)CCBr)C3(C(=O)NCc4ccccc4)CCOCC3)ccc21 | > 10000 |
| C#CC(=O)N(c1cccc(Cl)c1)C1(C(=O)NCS(=O)(=O)c2ccc(C)cc2)CCOCC1 | 500 |
| C#CC(=O)N(C1CCC(=O)N(C)C1)C(C(=O)NCc1ccccc1)c1ccccc1 (stereo not drawn) | 2000 |
| C#CC(=O)N(c1ccc(OC)cc1OC)C1(C(=O)NCc2ccccc2)CCOCC1 | ≤ 100 |
| Cn1ncc2cc(N(C(=O)CCCl)C3(C(=O)NCc4ccccc4)CCOCC3)ccc21 | > 10000 |
| CC#CC(=O)N(c1ccc2c(cnn2C)c1)C1(C(=O)NCc2ccccc2)CCOCC1 | > 10000 |
| C#CC(=O)N(c1ccn2cnnc2c1)C1(C(=O)NCc2ccccc2)CCOCC1 | 500 |
| C#CC(=O)N(c1cccc(Cl)c1)C1(C(=O)NCC(=O)N2CCCC(O)C2)CCOCC1 (stereo not drawn) | 2000 |
| Cn1ncc2cc(N(C(=O)CO)C3(C(=O)NCc4ccccc4)CCOCC3)ccc21 | > 10000 |
| C#CC(=O)N(c1ccc2c(ccn2C)c1)C1(C(=O)NCc2ccccc2)CCOCC1 | ≤ 100 |
| C=CC(=O)N(c1ccc2c(cnn2C)c1)C1(C(=O)NCc2ccccc2)CCOCC1 | > 10000 |

| Structure (SMILES) | EC50 [nM] |
| --- | --- |
| Cn1ncc2cc(N(C(=O)CCl)C3(C(=O)NCc4ccccc4)CCOCC3)ccc21 | 500 |
| C#CC(=O)N(C1(C(=O)NCc2ccccc2)CCOCC1)C1(c2ccccc2)CC1 | ≤ 100 |
| C#CC(=O)N(c1ccc2c(cnn2C)c1)C1(C(=O)NCc2ccccc2)CCOCC1 | ≤ 100 |
| C#CC(=O)N(Cc1cccc(O)c1)C1(C(=O)NCc2ccccc2)CCOCC1 | ≤ 100 |
| C#CC(=O)N(c1ccc(O)cc1)C(C(=O)NC(C)(C)C)c1ccc(N)cc1 (stereo not drawn) | > 10000 |
| C#CC(=O)N(c1ccc(S(C)(=O)=O)cc1)C(C(=O)NC(C)(C)C)c1ccc(N)cc1 (stereo not drawn) | 2000 |
| C#CC(=O)N(c1ccc(CO)cc1)C(C(=O)NC(C)(C)C)c1ccc(N)cc1 (stereo not drawn) | 2000 |
| C#CC(=O)N(c1ccc2[nH]ccc2c1)C1(C(=O)NCc2ccccc2)CCOCC1 | 2000 |
| C#CC(=O)N(c1ccc(C#N)cc1)C(C(=O)NC(C)(C)C)c1ccc(N)cc1 (stereo not drawn) | ≤ 100 |
| C#CC(=O)N(c1cccc2c1OCO2)C1(C(=O)NCc2ccccc2)CCOCC1 | ≤ 100 |
| Cn1ncc2cc(N(C(=O)C#CCO)C3(C(=O)NCc4ccccc4)CCOCC3)ccc21 | > 10000 |
| C#CC(=O)N(c1ccc2c(c1)C(=O)OC2)C1(C(=O)NCc2ccccc2)CCOCC1 | ≤ 100 |
| C#CC(=O)N(c1ccc2scnc2c1)C1(C(=O)NCc2ccccc2)CCOCC1 | 100 |
| C#CC(=O)N(c1ccc(OC)cc1)C(C(=O)NC(C)(C)C)c1ccc(N)cc1 (stereo not drawn) | 500 |
| C#CC(=O)N(c1ccc(O)cc1)C(C(=O)NC(C)(C)C)c1cccc(N)c1 (stereo not drawn) | 2000 |
| COc1ccc(N(C(=O)CCl)C(C(=O)NC(C)(C)C)c2cccs2)cc1Cl (stereo not drawn) | 500 |
| C#CC(=O)N(c1cccc2c1CCC2=O)C1(C(=O)NCc2ccccc2)CCOCC1 | ≤ 100 |
| C#CC(=O)N(c1ccc(OC)cc1)C(C(=O)NC(C)(C)C)c1cccc(N)c1 (stereo not drawn) | 500 |
| C#CC(=O)N(c1cccc(Cl)c1)C1(C(=O)NCC(=O)Nc2ccccc2)CCOCC1 | 100 |
| C#CC(=O)N(c1ccc(C(=O)OC)cc1)C(C(=O)NC(C)(C)C)c1ccc(N)cc1 (stereo not drawn) | ≤ 100 |

Further lines, results first:

| EC50 [nM] | Structure (SMILES) |
| --- | --- |
| > 10000 | C#CC(=O)N(c1ccc(S(N)(=O)=O)cc1)C(C(=O)NCc1ccccc1)c1ccc(N)cc1 (stereo not drawn) |
| 100 | COc1ccc(N(C(=O)CCl)C(C(=O)NCCc2ccccc2)c2cccc(N)c2)cc1Cl (stereo not drawn) |
| ≤ 100 | C#CC(=O)N(c1cccc(Cl)c1)C1(C(=O)NCc2ccccc2)CCCC(C(=O)OC)C1 (stereo not drawn) |
| 100 | COc1ccc(N(C(=O)CCl)C2(C(=O)NCCc3ccccc3)CCC(F)(F)CC2)cc1Cl |
| 100 | C#CC(=O)N(c1cccc(Cl)c1)C(C(=O)NCc1ccccc1)c1cccc(CCO)c1 (stereo not drawn) |
| ≤ 100 | C#CC(=O)N(c1ccc(C#N)cc1)C(C(=O)NCc1ccccc1)c1cccc(N)c1 (stereo not drawn) |
| 2000 | C#CC(=O)N(c1ccn(C)c(=O)c1)C(C(=O)NCc1ccccc1)c1ccccc1 (stereo not drawn) |
| ≤ 100 | C#CC(=O)N(c1cccc(Cl)c1F)C(C(=O)NCc1ccccc1)c1cccc(N)c1 (stereo not drawn) |
| > 10000 | C=CC(=O)N(c1cccc(Cl)c1)C1(C(=O)NCc2ccccc2)CCOCC1 |
| > 10000 | C=C(F)C(=O)N(c1ccc(OC)c(Cl)c1)C(C(=O)NCc1ccccc1)c1cccc(N)c1 (stereo not drawn) |
| ≤ 100 | C#CC(=O)N(c1cccc(Cl)c1)C1(C(=O)NCc2ccccc2)CCC(C(=O)OC)CC1 (stereo not drawn) |
| ≤ 100 | C#CC(=O)N(c1cccc(C#N)c1)C(C(=O)NCc1ccccc1)c1ccccc1 (stereo not drawn) |
| 2000 | C#CC(=O)N(c1cccc(NC(C)=O)c1)C(C(=O)NCc1ccccc1)c1ccc(N)cc1 (stereo not drawn) |
| 2000 | C#CC(=O)N(c1cccc(O)c1)C(C(=O)NCc1ccccc1)c1ccc(N)cc1 (stereo not drawn) |
| 100 | COC(=O)c1cccc(N(C(=O)CCl)C(C(=O)NCCc2ccccc2)c2ccc([N+](=O)[O-])cc2)c1 (stereo not drawn) |
| ≤ 100 | C#CC(=O)N(c1cccc(C(=O)OC)c1)C(C(=O)NCc1ccccc1)c1ccccc1 (stereo not drawn) |
| 2000 | Nc1cccc(N(C(=O)CCl)C(C(=O)NCCc2ccccc2)c2cccs2)c1 (stereo not drawn) |
| ≤ 100 | C#CC(=O)N(c1cccc(Cl)c1)C1(C(=O)NCc2ccccc2)CCCCC1 |
| ≤ 100 | C#CC(=O)N(c1ccc(OC)cc1)C(C(=O)NCc1ccccc1)c1ccc(N)cc1 (stereo not drawn) |
| 100 | O=C(NCCc1ccccc1)C(c1ccc([N+](=O)[O-])cc1)N(C(=O)CCl)c1cccc(Cl)c1 (stereo not drawn) |

| EC50 [nM] | Structure (SMILES) |
| --- | --- |
| 2000 | C#CC(=O)N(c1cccc(CO)c1)C(C(=O)NCc1ccccc1)c1cccc(N)c1 (stereo not drawn) |
| 2000 | C#CC(=O)N(c1ccc(O)cc1)C(C(=O)NCc1ccccc1)c1cccc(N)c1 (stereo not drawn) |
| ≤ 100 | C#CC(=O)N(c1cccc(Cl)c1)C(C(=O)NCc1ccc(C#N)cc1)c1ccccc1 (stereo not drawn) |
| 100 | C#CC(=O)N(c1cccc(Cl)c1)C(C(=O)NC(C)(C)C)c1ccc(N)cc1 (stereo not drawn) |
| ≤ 100 | C#CC(=O)N(c1cc(Cl)ccc1F)C(C(=O)NCc1ccccc1)c1cccc(N)c1 (stereo not drawn) |
| ≤ 100 | C#CC(=O)N(c1ccc2scnc2c1)C(C(=O)NCc1ccccc1)c1ccccc1 (stereo not drawn) |
| 100 | C#CC(=O)N(c1cccc(Cl)c1)C1(C(=O)NCC(=O)NCc2ccccc2)CCOCC1 |
| ≤ 100 | C#CC(=O)N(c1cc(Cl)ccc1Cl)C(C(=O)NCc1ccccc1)c1ccccc1 (stereo not drawn) |
| 500 | O=C(CCl)N(c1cccc2nsnc12)C1(C(=O)NCCc2ccccc2)CCOCC1 |
| 2000 | O=C(NCCc1ccccc1)C(c1ccc([N+](=O)[O-])cc1)N(C(=O)CCl)c1cccc(O)c1 (stereo not drawn) |
| > 10000 | C#CC(=O)N(c1cccc(C(N)=O)c1)C(C(=O)NCc1ccccc1)c1ccc(N)cc1 (stereo not drawn) |
| ≤ 100 | C#CC(=O)N(c1ccc(C(=O)OC)cc1)C(C(=O)NCc1ccccc1)c1ccc(N)cc1 (stereo not drawn) |
| 2000 | Nc1ccc(N(C(=O)CCl)C(C(=O)NCCc2ccccc2)c2cccs2)cc1 (stereo not drawn) |
| ≤ 100 | C#CC(=O)N(c1cccc(Cl)c1)C(C(=O)NCc1ccc(F)cc1)c1ccccc1 (stereo not drawn) |
| 2000 | C#CC(=O)N(c1ccc(O)cc1)C(C(=O)NCc1ccccc1)c1ccc(N)cc1 (stereo not drawn) |
| 100 | C#CC(=O)N(c1ccc2nncn2c1)C(C(=O)NCc1ccccc1)c1ccccc1 (stereo not drawn) |
| ≤ 100 | C#CC(=O)N(c1cccc(Cl)c1)C1(C(=O)NCc2ccccc2)CCC(=O)CC1 |
| > 10000 | O=C(C#CCO)N(c1cccc(Cl)c1)C1(C(=O)NCc2ccccc2)CCOCC1 |
| 2000 | COc1ccc(N(C(=O)C#CCO)C(C(=O)NCCc2ccccc2)c2cccs2)cc1Cl (stereo not drawn) |
| > 10000 | CC#CC(=O)N(c1cccc(Cl)c1)C(C(=O)NCc1ccccc1)c1ccccc1 (stereo not drawn) |

| EC50 [nM] | Structure (SMILES) |
| --- | --- |
| ≤ 100 | C#CC(=O)N(c1cccc(Cl)c1)C(C(=O)NCc1ccccc1)c1ccccc1F (stereo not drawn) |
| 100 | C#CC(=O)N(c1cccc(Cl)c1)C(C(=O)NCc1ccccc1)c1cccc(OCC(=O)OC)c1 (stereo not drawn) |
| 500 | C#CC(=O)N(c1cccc(Cl)c1)C(C(=O)NCc1ccccc1)c1ccncc1 (stereo not drawn) |
| ≤ 100 | C#CC(=O)N(c1cccc(Cl)c1F)C(C(=O)NCc1ccccc1)c1ccc(N)cc1 (stereo not drawn) |
| ≤ 100 | C#CC(=O)N(c1cccc(OC)c1)C(C(=O)NCc1ccccc1)c1ccc(N)cc1 (stereo not drawn) |
| ≤ 100 | C#CC(=O)N(c1ccc(OC)c(Cl)c1)C(C(=O)NCc1ccccc1)c1ccc(N)cc1 (stereo not drawn) |
| > 10000 | N#CCC(=O)N(c1cccc(Cl)c1)C1(C(=O)NCc2ccccc2)CCOCC1 |
| 100 | C#CC(=O)N(c1cccc(C#N)c1)C(C(=O)NCc1ccccc1)c1ccc(N)cc1 (stereo not drawn) |
| ≤ 100 | C#CC(=O)N(c1ccc(OC)c(Cl)c1)C(C(=O)NCc1ccccc1)c1cccc(N)c1 (stereo not drawn) |
| 100 | C#CC(=O)N(c1cccc(C#N)c1)C(C(=O)NCc1ccccc1)c1cccc(N)c1 (stereo not drawn) |
| 500 | Nc1ccc(C(C(=O)NCCc2ccccc2)N(C(=O)CCl)c2cccc(Cl)c2)cc1 (stereo not drawn) |
| 100 | C#CC(=O)N(c1cccc2nonc12)C(C(=O)NCc1ccccc1)c1ccccc1 (stereo not drawn) |
| ≤ 100 | C#CC(=O)N(c1ccc(Cl)cc1)C(C(=O)NCc1ccccc1)c1ccc(N)cc1 (stereo not drawn) |
| ≤ 100 | C#CC(=O)N(c1cccc(O)c1)C(C(=O)NCc1ccccc1)c1cccc(N)c1 (stereo not drawn) |
| 100 | C#CC(=O)N(c1cccc(Cl)c1)C(C(=O)NCc1ccccc1F)c1ccccc1 (stereo not drawn) |
| 2000 | C#CC(=O)N(c1cccc(NC(C)=O)c1)C(C(=O)NCc1ccccc1)c1cccc(N)c1 (stereo not drawn) |
| > 10000 | CC#CC(=O)N(c1ccc(Cl)c(Cl)c1)C(C(=O)NCc1ccccc1)c1ccccc1 (stereo not drawn) |
| > 10000 | C#CC(=O)N(c1cccc(C(N)=O)c1)C(C(=O)NCc1ccccc1)c1cccc(N)c1 (stereo not drawn) |
